This passage reports EC50 results from patent publication US20230012560A1, “HEPATITIS B ANTIVIRAL AGENTS” (TAIGEN BIOTECHNOLOGY CO., LTD., priority 2019, published 2023).

In this test the test system is HBV (HepAD38 cells). The experiment in a line: Real-Time PCR Assay (extracellular HBV DNA from HepAD38 culture supernatants). It is filed as cell-based. The conditions noted are these: Hepatitis B virus, 120 h, compound treatment for 5 days without tetracycline, extracellular DNA in culture supernatant quantified by real-time PCR, read-out: EC50 (50% effective concentration). As to the method: HepAD38 cells were seeded and cultured on 96-well plates. After incubation for 2 days, cells were fed with compound-containing media without tetracycline. After compound treatment for 5 days, culture supernatants were collected. Extracellular DNA was then extracted using LabTurbo DNA mini kit, and quantified by real-time PCR.
Real-time PCR was performed using an ABI QuantStudio 3 system in a 96-well optical plate format. The PCR mixture containing forward primer (5′-[…]-3′) (SEQ ID NO.1), reverse primer (5′-GGTGAGTGATTGGAGGTTG-3′) (SEQ ID NO.2) and Luna Universal qPCR Master Mix in a final volume of 24 μl was incubated at 95° C. for 10 min followed by 45 cycle of incubation at 95° C. for 10 s and 60° C. for 10 s. Regression analysis was performed using GraphPad Prism 5 to calculate the 50% effective concentration (EC50) values.
(In general: Quantitative PCR measures a nucleic acid by following its amplification.)

pEC50: −log10 of the molar value. Some results are limits rather than exact numbers.

For the molecule `CNC(=O)C(=O)N1CC[C@@H](NS(=O)(=O)c2c(Cl)c(C(=O)Nc3cc(F)c(F)c(F)c3)n3c2CCC3)C1` [Compound 47], the pEC50 is 6.52 to 7.00.
Then `CCn1cc(S(=O)(=O)N[C@@H]2CCCN(C(=O)C(N)=O)C2)c(F)c1C(=O)Nc1ccc(F)c(F)c1` [Compound 58], with greater than 7.00.
Then `CCS(=O)(=O)N1CC2CC1CN2S(=O)(=O)c1cn(C)c(C(=O)Nc2ccc(F)c(F)c2)c1F` (stereo not shown) [Compound 67], with 6.00 to 6.52; and `Cn1cc(S(=O)(=O)N[C@@H]2CCN(C(=O)C(=O)NC3CC3)C2)c(F)c1C(=O)Nc1ccc(F)c(F)c1` [Compound 33], with greater than 7.00; and `CNS(=O)(=O)N1CCC(C)C(NS(=O)(=O)c2cn(C)c(C(=O)Nc3ccc(F)c(F)c3)c2F)C1` (stereo not shown) [Compound 19], with greater than 7.00.
As for `CNC(=O)C(=O)N1C[C@@H]2[C@H](C1)[C@@H]2NS(=O)(=O)c1cn(C)c(C(=O)Nc2cc(F)c(F)c(F)c2)c1F` [Compound 100], the pEC50 is greater than 7.00.
Then `CCNC(=O)C(=O)N1CCC(NS(=O)(=O)c2cn(C)c(C(=O)Nc3cc(F)c(F)c(F)c3)c2F)C(C)(C)C1` (stereo not shown) [Compound 86], with greater than 7.00.
Then `CCNC(=O)C(=O)N1CCC2(NS(=O)(=O)c3cn(C)c(C(=O)Nc4cc(F)c(F)c(F)c4)c3F)CC2C1` (stereo not shown) [Compound 85], with greater than 7.00; and `CC(C)NC(=O)C(=O)N1CC[C@@H](NS(=O)(=O)c2cn(C)c(C(=O)Nc3cc(F)c(F)c(F)c3)c2F)[C@@H](C)C1` [Compound 97], with greater than 7.00.
Then `CNS(=O)(=O)N1CC[C@@H](NS(=O)(=O)c2c(F)c(C(=O)Nc3ccc(F)c(F)c3)n3c2CCC3)C1` [Compound 10], with greater than 7.00.
In the case of `CNC(=O)C(=O)N1CC[C@@H](NS(=O)(=O)c2cn(CC3CC3)c(C(=O)Nc3ccc(F)c(F)c3)c2F)C1` [Compound 50], the pEC50 is 6.52 to 7.00.
In the case of `CCNC(=O)C(=O)N1CCC(C)(NS(=O)(=O)c2cn(C)c(C(=O)Nc3cc(F)c(F)c(F)c3)c2F)CC1` [Compound 82], the pEC50 is 6.52 to 7.00.
Then `CCS(=O)(=O)N1CCC2(NS(=O)(=O)c3cn(C)c(C(=O)Nc4ccc(F)c(F)c4)c3F)CC2C1` (stereo not shown) [Compound 26], with greater than 7.00; and `CCNC(=O)C(=O)N1CCN(S(=O)(=O)c2cn(C)c(C(=O)Nc3cc(F)c(F)c(F)c3)c2F)CC1` [Compound 65], with 6.00 to 6.52; and `CNS(=O)(=O)N1CC[C@@H](NS(=O)(=O)c2c(Cl)c(C(=O)Nc3cc(F)c(F)c(F)c3)n3c2CCC3)C1` [Compound 12], with greater than 7.00.
Then `Cn1cc(S(=O)(=O)NC2CCN(C(=O)C(N)=O)CC2)c(F)c1C(=O)Nc1cc(F)c(F)c(F)c1` [Compound 68], with greater than 7.00.
Then `C#CCNC(=O)C(=O)N1CC[C@@H](NS(=O)(=O)c2cn(C)c(C(=O)Nc3ccc(F)c(F)c3)c2F)C1` [Compound 34], with greater than 7.00; and `CCNC(=O)C(=O)N1CCC(NS(=O)(=O)c2cn(C)c(C(=O)Nc3cccc(C(F)(F)F)c3)c2F)CC1` [Compound 73], with greater than 7.00.
Turning to `CCNC(=O)C(=O)N1CC(C)C(NS(=O)(=O)c2cn(C)c(C(=O)Nc3cc(F)c(F)c(F)c3)c2F)C1` (stereo not shown) [Compound 54], the pEC50 was greater than 7.00.
Then `Cn1cc(S(=O)(=O)N[C@@H]2CCN(S(=O)(=O)C3CCCC3)C2)c(F)c1C(=O)Nc1ccc(F)c(F)c1` [Compound 3], with 6.52 to 7.00; and `CCNC(=O)C(=O)N1CCC(NS(=O)(=O)c2c(Cl)c(C(=O)Nc3cc(F)c(F)c(F)c3)n3c2CCC3)CC1` [Compound 78], with greater than 7.00.
Then `CNS(=O)(=O)N1CC[C@@H](NS(=O)(=O)c2cn(C)c(C(=O)Nc3cc(F)c(F)c(F)c3)c2F)C1` [Compound 6], with greater than 7.00; and `CCNC(=O)C(=O)N1CCC(NS(=O)(=O)c2cn(C)c(C(=O)Nc3cc(F)c(F)c(F)c3)c2Cl)CC1C` (stereo not shown) [Compound 84], with greater than 7.00; and `CCNC(=O)C(=O)N1CC[C@@H](NS(=O)(=O)c2cn(C)c(C(=O)Nc3ccc(F)c(F)c3)c2F)C(C)(C)C1` [Compound 99], with greater than 7.00.
Then `Cn1cc(S(=O)(=O)N[C@@H]2CCN(C(=O)C(=O)NC3COC3)C2)c(F)c1C(=O)Nc1cc(F)c(F)c(F)c1` [Compound 36], with greater than 7.00; and `COCCNC(=O)C(=O)N1CC[C@@H](NS(=O)(=O)c2cn(C)c(C(=O)Nc3ccc(F)c(F)c3)c2F)C1` [Compound 32], with greater than 7.00; and `CN(C)S(=O)(=O)N1CC[C@@H](NS(=O)(=O)c2cn(C)c(C(=O)Nc3ccc(F)c(F)c3)c2F)C1` [Compound 9], with greater than 7.00.
As for `CN(C)C(=O)C(=O)N1CC[C@@H](NS(=O)(=O)c2cn(C)c(C(=O)Nc3cc(F)c(F)c(F)c3)c2F)C1` [Compound 30], the pEC50 is greater than 7.00.
